Laboratory results from patent US8822691B2, “Pesticidal carboxamides” (Bayer CropScience AG, priority 2009, dated 2014).
Read-outs that look alike come from different tables or passages of the source.

Key:
Format in all cases: in vivo
Spodoptera litura = experiment: Test against tobacco cutworm (Spodoptera litura) larvae, leaf dip; details: active compound concentration of 100 ppm, third instar larvae on sweet potato leaves, after 7 days; for pest or weed control at 100 ppm: foliar, 168 h, read-out: insecticidal activity
Method: (§1) Unless not mentioned otherwise, the test solutions were prepared as follows:
(§2) Containing as solvent: Dimethylformamide, 3 parts by weight; and as emulsifier: Polyoxyethylene alkyl phenyl ether, 1 part by weight
(§3) To prepare the test solution, 1 part by weight of an active compound is mixed with the above-mentioned amount of solvent containing the above-mentioned amount of emulsifier, and the mixture is diluted with water to the desired concentration.
Leaves of sweet potato were immersed in the test solution at the appropriate concentration, and the leaves were dried in air. The leaves were then placed in a petri dish having a diameter of 9 cm, and ten Spodoptera litura at third instar larvae were released therein. The petri dishes were placed in a temperature-controlled chamber at 25° C. After 2 days and 4 days more sweet potato leaves were added. After 7 days, the number of dead larvae was counted to calculate the insecticidal activity. An insecticidal activity of 100% means that all larvae were killed, whereas an insecticidal activity of 0% means that no larva was killed. In the current test, the results of two petri dishes for each treatment were averaged.

Aulacophora femoralis = experiment: Test against cucurbit leaf beetle (Aulacophora femoralis), leaf dip; details: for pest or weed control at 500 ppm: Aulacophora, foliar, 168 h, read-out: insecticidal activity
Method: as §1, §2, §3
Leaves of cucumber were immersed in the test solution at the appropriate concentration, and the leaves were dried in air. The leaves were then put in a plastic cup containing sterilized black soil and five Aulacophora femoralis at second instar larvae were released in the cup. The cups were placed in a temperature-controlled chamber at 25° C. After 7 days, the number of dead larvae was counted, and thus the insecticidal activity was calculated. An insecticidal activity of 100% means that all larvae were killed, whereas an insecticidal activity of 0% means that no larva was killed.

Tetranychus urticae = experiment: Test against two-spotted spider mite (Tetranychus urticae), spray; details: for acaricidal activity: active compound concentration of 500 ppm, adult mites on kidney bean, after 7 days
Method: as §1, §2, §3
50 to 100 adult mites of Tetranychus urticae were inoculated to leaves of kidney bean at two-leaf stage planted in a pot of 6 cm in diameter. After one day, test solution at the appropriate concentration was sprayed thereon in a sufficient amount using a spray gun. After the spraying, the plant pot was placed inside a greenhouse, and after 7 days, the acaricidal activity was calculated. An acaricidal activity of 100% means that all mites were killed, whereas an acaricidal activity of 0% means that no mite was killed.

[1] = active compound concentration of 500 ppm, second instar larvae on cucumber leaves, after 7 days

CCc1cc(C(F)(C(F)(F)F)C(F)(F)F)cc(C)c1NC(=O)c1ccc2cc(C#N)ccc2c1 [Compound No. 1-4, 6-cyano-N-[2-ethyl-4-(1,1,1,2,3,3,3-heptafluoropropan-2-yl)-6-methylphenyl]-2-naphthamide]
pest or weed control at 100 ppm (Spodoptera litura): 100%

O=C(Nc1c(I)cc(C(F)(C(F)(F)F)C(F)(F)C(F)(F)F)cc1I)c1ccc2ncccc2c1 (stereo not drawn) [2-111]
insecticidal activity (Spodoptera litura): 100%

N#Cc1ccc2cc(C(=O)Nc3c(I)cc(C(F)(C(F)(F)F)C(F)(F)C(F)(F)F)cc3I)ccc2n1 (stereo not drawn) [2-113]
insecticidal activity (Aulacophora femoralis; [1]): 100%
insecticidal activity (Spodoptera litura): 100%

O=C(Nc1c(I)cc(C(F)(C(F)(F)F)C(F)(F)C(F)(F)F)cc1I)c1ccc2c(ccc[n+]2[O-])c1 (stereo not drawn) [2-112]
insecticidal activity (Aulacophora femoralis; [1]): 100%

CC(C)c1cc(C(F)(C(F)(F)F)C(F)(F)F)cc(C(C)C)c1NC(=O)c1ccc2c(ccc[n+]2[O-])c1 [2-57]
insecticidal activity (Aulacophora femoralis; [1]): 100%

Cc1cc(C(F)(C(F)(F)F)C(F)(F)C(F)(F)F)cc(C)c1NC(=O)c1ccc2ncccc2c1 (stereo not drawn) [2-85]
acaricidal activity (Tetranychus urticae): 100%

O=C(Nc1c(Cl)cc(C(F)(C(F)(F)F)C(F)(F)F)cc1Cl)c1ccc2ncccc2c1 [2-59]
insecticidal activity (Aulacophora femoralis; [1]): 100%

CCCc1cc(C(F)(C(F)(F)F)C(F)(F)C(F)(F)F)cc(I)c1NC(=O)c1ccc2c(ccc[n+]2[O-])c1 (stereo not drawn) [2-103]
insecticidal activity (Spodoptera litura): 100%

Cc1cc(C(F)(C(F)(F)F)C(F)(F)F)cc(C)c1NC(=O)c1ccc2c(ccc(C#N)[n+]2[O-])c1 [Compound No. 2-21]
insecticidal activity (Aulacophora femoralis; [1]): 100%
insecticidal activity (Spodoptera litura): 100%

N#Cc1ccc2cc(C(=O)Nc3c(Cl)cc(C(F)(C(F)(F)F)C(F)(F)F)cc3Cl)ccc2n1 [2-61]
insecticidal activity (Aulacophora femoralis; [1]): 100%
insecticidal activity (Spodoptera litura): 100%

Cc1cc(C(F)(C(F)(F)F)C(F)(F)Br)cc(C)c1NC(=O)c1ccc2ncccc2c1 (stereo not drawn) [2-189]
acaricidal activity (Tetranychus urticae): 100%

O=C(Nc1c(I)cc(C(F)(C(F)(F)F)C(F)(F)C(F)(F)F)cc1OC(F)F)c1ccc2c(ccc[n+]2[O-])c1 (stereo not drawn) [Compound No. 2-175, N-[2-(difluoromethoxy)-6-iodo-4-(1,1,1,2,3,3,4,4,4-nonafluorobutan-2-yl)phenyl]quinoline-6-carboxamide N-oxide]
pest or weed control at 500 ppm (Aulacophora femoralis; [1]): 100%
pest or weed control at 100 ppm (Spodoptera litura): 100%

Cc1cc(C(F)(C(F)(F)F)C(F)(F)F)cc(C(C)C)c1NC(=O)c1ccc2c(ccc[n+]2[O-])c1 [2-36]
insecticidal activity (Aulacophora femoralis; [1]): 100%

CCOC(c1cc(C)c(NC(=O)c2ccc3nc(C#N)ccc3c2)c(CC)c1)(C(F)(F)F)C(F)(F)F [2-74]
insecticidal activity (Aulacophora femoralis; [1]): 100%
insecticidal activity (Spodoptera litura): 100%

N#Cc1ccc2cc(C(=O)Nc3c(Br)cc(SC(F)(F)F)cc3Br)ccc2n1 [2-140]
insecticidal activity (Aulacophora femoralis; [1]): 100%
insecticidal activity (Spodoptera litura): 100%

O=C(Nc1c(Br)cc(C(F)(C(F)(F)F)C(F)(F)C(F)(F)F)cc1SC(F)(F)F)c1ccc2c(ccc[n+]2[O-])c1 (stereo not drawn) [2-184]
acaricidal activity (Tetranychus urticae): 100%

Cc1cc(C(F)(C(F)(F)F)C(F)(F)F)cc(C)c1NC(=O)c1ccc2nc(Cl)ccc2c1 [Compound No. 2-17, 2-chloro-N-[4-(1,1,1,2,3,3,3-heptafluoropropan-2-yl)-2,6-dimethylphenyl]quinoline-6-carboxamide]
pest or weed control at 500 ppm (Aulacophora femoralis; [1]): 100%
pest or weed control at 100 ppm (Spodoptera litura): 100%

O=C(Nc1c(Br)cc(C(F)(C(F)(F)F)C(F)(F)Br)cc1Br)c1ccc2ncccc2c1 (stereo not drawn) [2-195]
insecticidal activity (Aulacophora femoralis; [1]): 100%
insecticidal activity (Spodoptera litura): 100%

CC(C)c1cc(C(F)(C(F)(F)F)C(F)(F)C(F)(F)F)cc(I)c1NC(=O)c1ccc2nc(C#N)ccc2c1 (stereo not drawn) [2-167]
insecticidal activity (Aulacophora femoralis; [1]): 100%
insecticidal activity (Spodoptera litura): 100%

CCCc1cc(C(F)(C(F)(F)F)C(F)(F)C(F)(F)F)cc(Br)c1NC(=O)c1ccc2nc(C#N)ccc2c1 (stereo not drawn) [2-164]
insecticidal activity (Aulacophora femoralis; [1]): 100%
insecticidal activity (Spodoptera litura): 100%

Cc1cc(C(F)(C(F)(F)F)C(F)(F)F)cc(C)c1NC(=O)c1ccc2nc(Br)ccc2c1 [2-18]
insecticidal activity (Aulacophora femoralis; [1]): 100%

O=C(Nc1c(I)cc(C(F)(C(F)(F)F)C(F)(F)Br)cc1I)c1ccc2ncccc2c1 (stereo not drawn) [2-198]
insecticidal activity (Spodoptera litura): 100%

CCCc1cc(C(F)(C(F)(F)F)C(F)(F)C(F)(F)F)cc(I)c1NC(=O)c1ccc2ncccc2c1 (stereo not drawn) [2-102]
insecticidal activity (Spodoptera litura): 100%

N#Cc1ccc2cc(C(=O)Nc3c(Br)cc(OC(F)(F)F)cc3Br)ccc2n1 [2-139]
insecticidal activity (Aulacophora femoralis; [1]): 100%

CCc1cc(C(F)(C(F)(F)F)C(F)(F)F)cc(C)c1NC(=O)c1ccc2cc(Br)ccc2c1 [Compound No. 1-3, 6-bromo-N-[2-ethyl-4-(1,1,1,2,3,3,3-heptafluoropropan-2-yl-2-yl)-6-methylphenyl]-2-naphthamide]
pest or weed control at 500 ppm (Tetranychus urticae; Tetranychus urticae, in Phaseolus vulgaris, 168 h, read-out: acaricidal activity): 100%

O=C(Nc1c(Br)cc(C(F)(C(F)(F)F)C(F)(F)F)cc1OC(F)F)c1ccc2ncccc2c1 [Compound No. 2-152, N-[2-bromo-(1,1,1,2,3,3,3-heptafluoropropan-2-yl)-6-(difluoromethoxy)phenyl]quinoline-6-carboxamide]
pest or weed control at 500 ppm (Aulacophora femoralis; in Cucumis sativus): 100%
pest or weed control at 100 ppm (Spodoptera litura): 100%

N#Cc1ccc2cc(C(=O)Nc3c(I)cc(C(F)(C(F)(F)F)C(F)(F)Br)cc3I)ccc2n1 (stereo not drawn) [2-200]
insecticidal activity (Aulacophora femoralis; [1]): 100%
insecticidal activity (Spodoptera litura): 100%

Cc1cc(C(F)(C(F)(F)F)C(F)(F)F)cc(C)c1NC(=O)c1ccc2nccc(Br)c2c1 [2-13]
insecticidal activity (Aulacophora femoralis; [1]): 100%
insecticidal activity (Spodoptera litura): 100%

O=C(Nc1c(Cl)cc(C(F)(C(F)(F)F)C(F)(F)F)cc1OC(F)F)c1ccc2ncccc2c1 [Compound No. 2-229, N-[2-chloro-(1,1,1,2,3,3,3-heptafluoropropan-2-yl)-6-(difluoromethoxy)phenyl]quinoline-6-carboxamide]
pest or weed control at 500 ppm (Aulacophora femoralis; [1]): 100%

CCc1cc(C(F)(C(F)(F)F)C(F)(F)C(F)(F)F)cc(C)c1NC(=O)c1ccc2c(ccc[n+]2[O-])c1 (stereo not drawn) [2-89]
insecticidal activity (Aulacophora femoralis; [1]): 100%

CCc1cc(C2(F)C(F)(F)C(F)(F)C(F)(F)C(F)(F)C2(F)F)cc(C)c1NC(=O)c1ccc2c(ccc[n+]2[O-])c1 [2-129]
insecticidal activity (Spodoptera litura): 100%

CCc1cc(C(Oc2ccc(Cl)cc2)(C(F)(F)F)C(F)(F)F)cc(C)c1NC(=O)c1ccc2ncccc2c1 [2-78]
insecticidal activity (Aulacophora femoralis; [1]): 100%
insecticidal activity (Spodoptera litura): 100%

O=C(Nc1c(I)cc(C(F)(C(F)(F)F)C(F)(F)F)cc1I)c1ccc2c(ccc[n+]2[O-])c1 [2-68]
insecticidal activity (Aulacophora femoralis; [1]): 100%
insecticidal activity (Spodoptera litura): 100%

N#Cc1ccc2cc(C(=O)Nc3c(Br)cc(C(F)(C(F)(F)F)C(F)(F)C(F)(F)F)cc3SC(F)(F)F)ccc2n1 (stereo not drawn) [2-185]
insecticidal activity (Aulacophora femoralis; [1]): 100%
insecticidal activity (Spodoptera litura): 100%

CCc1cc(C(F)(C(F)(F)F)C(F)(F)Br)cc(C)c1NC(=O)c1ccc2c(ccc[n+]2[O-])c1 (stereo not drawn) [2-193]
insecticidal activity (Aulacophora femoralis; [1]): 100%

CCOC(c1cc(C)c(NC(=O)c2ccc3ncccc3c2)c(CC)c1)(C(F)(F)F)C(F)(F)F [2-72]
acaricidal activity (Tetranychus urticae): 100%

CCCc1cc(C(F)(C(F)(F)F)C(F)(F)C(F)(F)F)cc(I)c1NC(=O)c1ccc2nc(C#N)ccc2c1 (stereo not drawn) [2-104]
insecticidal activity (Aulacophora femoralis; [1]): 100%
insecticidal activity (Spodoptera litura): 100%

O=C(Nc1c(I)cc(C(F)(C(F)(F)F)C(F)(F)C(F)(F)F)cc1SC(F)(F)F)c1ccc2c(ccc[n+]2[O-])c1 (stereo not drawn) [2-187]
acaricidal activity (Tetranychus urticae): 100%

N#Cc1ccc2cc(C(=O)Nc3c(I)cc(C(F)(C(F)(F)F)C(F)(F)C(F)(F)F)cc3SC(F)(F)F)ccc2n1 (stereo not drawn) [2-188]
insecticidal activity (Aulacophora femoralis; [1]): 100%
insecticidal activity (Spodoptera litura): 100%

CCc1cc(C(F)(C(F)(F)F)C(F)(F)C(F)(F)F)cc(C)c1NC(=O)c1ccc(N=c2ssnc2Cl)c(Br)c1 (stereo not drawn) [5-4]
insecticidal activity (Spodoptera litura): 100%

CCCc1cc(C(F)(C(F)(F)F)C(F)(F)C(F)(F)F)cc(Br)c1NC(=O)c1ccc2ncccc2c1 (stereo not drawn) [2-162]
insecticidal activity (Aulacophora femoralis; [1]): 100%
insecticidal activity (Spodoptera litura): 100%

N#Cc1ccc2cc(C(=O)Nc3c(I)cc(C(F)(C(F)(F)F)C(F)(F)F)cc3SC(F)(F)F)ccc2n1 [2-161]
insecticidal activity (Spodoptera litura): 100%

CCc1cc(C2(F)C(F)(F)C(F)(F)C(F)(F)C(F)(F)C2(F)F)cc(C)c1NC(=O)c1ccc2ncccc2c1 [2-128]
insecticidal activity (Spodoptera litura): 100%

Cc1cc(C(F)(C(F)(F)F)C(F)(F)F)cc(C(C)C)c1NC(=O)c1ccc2nc(C#N)ccc2c1 [2-37]
insecticidal activity (Aulacophora femoralis; [1]): 100%
insecticidal activity (Spodoptera litura): 100%

N#Cc1ccc2cc(C(=O)Nc3c(Br)cc(C(F)(C(F)(F)F)C(F)(F)C(F)(F)F)cc3Br)ccc2[n+]1[O-] (stereo not drawn) [2-270]
insecticidal activity (Spodoptera litura): 100%

O=C(Nc1c(I)cc(C(F)(C(F)(F)F)C(F)(F)C(F)(F)F)cc1SC(F)(F)F)c1ccc2ncccc2c1 (stereo not drawn) [2-186]
insecticidal activity (Spodoptera litura): 100%
